Experimental data taken from patent US20210382037A1, “IDENTIFICATION AND USE OF CYTOTOXIC T LYMPHOCYTE (CTL) ANTIGEN-SPECIFIC TARGET CELL KILLING ENHANCER AGENTS” (DANA-FARBER CANCER INSTITUTE, INC., priority 2017, published 2021).

Tests used:
[1] = system: ID8-lucOS cells (OVA-expressing ID8 target cells) co-cultured with OT-I CD8+ T cells; experiment: OT-I CTL assay, high-throughput compound screen and dose-response validation; format: cell-based, mouse; conditions: for effect on OT-I T cell killing of ID8-lucOS target cells, dose-response validation: dose-response curves; for effect on OT-I T cell killing of ID8-lucOS target cells, dose-response validation / effect on OT-I T cell-mediated target cell lysis (normalized firefly/renilla luciferase ratio relative to DMSO): 48 hr; for effect on OT-I T cell-mediated target cell lysis (normalized firefly/renilla luciferase ratio relative to DMSO): pilot screen, 1 μM, duplicate plates
Protocol: 10,000 ID8-lucOS and 10,000 ID8-rluc cells were plated in 1004, of cell culture media (DMEM+10% FBS+pen/strep) in solid white, flat-bottomed, tissue culture-treated 96-well plates (Thermo Fisher, Waltham, Mass.). Overnight-stimulated OT-I CD8^+ T cells were then added at the designated Effector:Target ratios with or without compounds in a total volume of 200 μL. Plates were incubated for 48 hr at 37° C. and 5% CO2. After 48 hr timepoint, 1004, of media was removed prior to dual-luciferase assay. Briefly: 504, of homemade Dual-Glo® luciferase buffer (Lu et al. Science 343: 305-309) was added to wells and incubated for 30 min before analysis of Firefly luminescence; then 504, of Dual-Glo® Stop & Glo® buffer was added, plates were incubated for 30 min, then analyzed for Renilla luminescence. An EnSpire plate reader (PerkinElmer, Waltham, Mass.) was used for quantification of luminescence. 203 compounds (listed above; details for LINCS kinase library can be found at lincs.hms.harvard.edu/db/sm/) were screened in high-throughput at 1 μM final concentration in duplicate, in 96-well plates in a first set that contained both OT-I CTLs and ID8 target cells and in a second set that contained ID8 target cells only. No compounds were placed in edge wells and all plates contained multiple DMSO control cells. Hits were calculated based on ΔΔCt method whereby ΔΔCt=(FLucDMSO/RLucDMSO)/(FLucCompound/RLucCompound) where values >1 were assessed as having augmented CTL killing, values ˜1 were assessed as having negligible immunomodulatory effect, and values <1 were assessed as having inhibited CTL killing. Hits from the high-throughput screen were validated with dose response curves using the indicated drug concentrations.
For development of the OT-I IO assay, the ID8 murine serous ovarian carcinoma cell line was utilized due to its constitutive expression of MHC class-I, MHC haplotype compatibility with C57BL/6J mice, and dramatic IFN-γ-induced upregulation of PD-L1 (FIG. 10A and FIG. 10B). ID8s were transduced with pLVX vectors to express either firefly luciferase and OVA model antigen (“lucOS”) or renilla luciferase and no model antigen (“rluc”) (FIG. 2A). Target ID8 cell lines were mixed at a 1:1 ratio and co-cultured with CD8+ T cells isolated from the spleens of OT-I TCR-transgenic mice; OT-I mice express transgenic TCRα-V2 and TCRβ-V5 genes such that all CD8+ T cell receptors recognize chicken ovalbumin residues 257-264 ([…]) in the context of H-2Kb (Hogquist et al., 1994 Cell, 76:17-27). Target cell-T cell cultures were incubated with compounds for 48 hr and then analyzed by dual-luciferase assay whereby changes in firefly signal relative to controls indicated modulation of T cell killing by compound treatment (FIG. 2B and FIG. 2C).
A high-throughput assay capable of identifying test compounds that specifically impaired or enhanced CD8^+ T cell-mediated killing of target ID8-lucOS “clone B9” cells in an antigen-specific manner was developed, as depicted in FIG. 2B. In such assays, a 96-well tissue culture plate array format was employed, and in each well, 10,000 ID8-lucOS and 10,000 ID8-rluc were co-plated. […] The OT-I assay was then performed as a high-throughput screen (FIG. 2C) to evaluate test compounds for immunomodulatory effects upon antigen-specific tumor cell killing by cytotoxic T lymphocytes (CTLs). Inclusion of ID8-lucOS and ID8-rluc in each well of the array-formatted test compound assay provided in-plate normalization controls, which allowed for identification of test compounds that effected non-specific growth inhibition or induction of apoptosis, versus identification of modulation by screen compounds of antigen-specific tumor cell killing by cytotoxic T lymphocytes. Such high-throughput screening was performed under standard ID8 cell growth conditions (37° C. and 5% 02) for initial rounds of test compound screening. […]

[2] = system: IFN-γ secretion by OT-I CD8+ T cells; experiment: OT-I IFN-γ ELISA; format: cell-based, mouse; conditions: supernatants at 48 hr; 100, 50, 10, 5, 1 nM; E:T 1:1 and 2:1
Protocol: The supernatants from OT-I CTL assays, as described above, were harvested at the 48 hr timepoint prior to dual luciferase assay and analyzed for IFN-γ secretion by LEGEND MAX™ Mouse IFN-γ ELISA Kit (Biolegend, San Diego, Calif.) according to the manufacturer's protocol. […] Conditions were assayed with four replicate wells per experiment.
Cell culture media from the OT-I IO assay was harvested from wells following 48 hr of culture with a range of EGFR inhibitors and the JAK2 inhibitor AZD-1480 and assessed for IFN-γ levels by ELISA. Secretion of IFN-γ was used as a proxy for OT-I T cell effector function. […] None of the EGFR inhibitors affected IFN-γ secretion, leading to the conclusion that the immunomodulatory effect of EGFR inhibition in the assay was not due to T cell-intrinsic effects.

[3] = system: MHC class-I (H-2K^b) on ID8 tumor cells; experiment: Flow cytometry of MHC class-I expression, ID8; format: cell-based, mouse; conditions: 100 nM, 48 hr, vs DMSO; for basal expression of MHC class-I by ID8 tumor cells: no IFN-γ; for MHC class-I expression induced by physiological levels of IFN-γ, ID8 tumor cells: with recombinant mouse IFN-γ
Protocol: 100,000 ID8-lucOS, ID8-lucOS sgEGFR KO, Kras^G12D;p53^−/−, and MC38 cell lines were cultured in 12-well plates in 2 mL of culture media (DMEM+10% FBS+pen/strep) alone or supplemented with 4 ng/mL recombinant mouse IFN-γ (Biolegend, San Diego, Calif.) for 48 hr. […] Data were analyzed using FlowJo (Ashland, Oreg.) software version 10.0.9.

r/m SCCHN = r/m SCCHN patients; cited from earlier work
MC38 colon cancer cells = format: in vivo; conditions: log-rank Mantel-Cox
Protocol: C57BL/6J stock #000664 mice (Jackson labs, Bar Harbor, Me.) were challenged subcutaneously with 500,000 MC38 colon cancer cells on their flanks and “enrolled” on-study when tumors reached 50 mm^3. […] Depleting aCD8α was administered two days prior to first aPD-1 treatment. Mice used in experiments were 7-8 weeks of age at time of tumor challenge. Endpoint was considered to be when tumors reached a size of 2000 mm^3 or as mandated by institutional guidelines due to development of necrotic lesions.
Specifically, for each of the experiments, C57BL/6J mice were challenged subcutaneously with 500,000 MC38 colon cancer cells on their flanks and “enrolled” on-study when tumors reached 50 mm^3. […] Flank tumor growth curves were analyzed using two-way ANOVA, bar graphs were analyzed using unpaired Student's t-test, and survival experiments used the log-rank Mantel-Cox test for survival analysis, all indicated with *p<0.05; **p<0.01; ***p<0.001.

[4] = system: OVA-expressing KP cells (Kras^G12D/p53^−/− lung adenocarcinoma) co-cultured with OT-I CD8+ T cells; conditions: KP-Cas9 lucOS cells co-cultured with OT-I CD8+ T cells
Description: The KP cell line was transduced with the same vectors to stably express Cas9 and the lusOS construct and co-cultured with OT-I CD8+ T cells.

[5] = biological target: chicken ovalbumin residues 257-264 (SIINFEKL) in the context of H-2Kb, presented on ID8-lucOS cells (mouse; chicken); experiment: cell-based or functional assay

## O=C1Nc2cc(Br)ccc2C1=C1Nc2ccccc2C1=O [6-bromoindirubin]
[1]
  effect on OT-I T cell killing of ID8-lucOS target cells, dose-response validation: only modestly augmented T cell killing
  effect on OT-I T cell-mediated target cell lysis (normalized firefly/renilla luciferase ratio relative to DMSO): significantly augmented T cell killing

## Cc1cc(Nc2nc(N[C@@H](C)c3ncc(F)cn3)ncc2Cl)n[nH]1 [AZD-1480]
[1]
  effect on OT-I T cell killing of ID8-lucOS target cells, dose-response validation: significantly inhibited T cell killing
  effect on OT-I T cell-mediated target cell lysis (normalized firefly/renilla luciferase ratio relative to DMSO): inhibited T cell-mediated target cell lysis
[2]
  IFN-γ secretion (ELISA): significantly inhibited IFN-γ secretion in a dose-dependent manner

## O=C(O)c1ccc(Nc2ncc3c(n2)-c2ccc(Cl)cc2C(c2c(F)cccc2F)=NC3)cc1 [MLN8054]
[1]
  effect on OT-I T cell-mediated target cell lysis (normalized firefly/renilla luciferase ratio relative to DMSO): inhibited T cell-mediated target cell lysis

## COc1cc(OC)c(/C=C/S(=O)(=O)Cc2ccc(OC)c(NCC(=O)O)c2)c(OC)c1 [Rigosertib]
[1]
  effect on OT-I T cell-mediated target cell lysis (normalized firefly/renilla luciferase ratio relative to DMSO): inhibited T cell-mediated target cell lysis

## CC(C)(C)c1cnc(CSc2cnc(NC(=O)C3CCNCC3)s2)o1 [SNS-032]
[1]
  effect on OT-I T cell-mediated target cell lysis (normalized firefly/renilla luciferase ratio relative to DMSO): inhibited T cell-mediated target cell lysis

## CN1C(=O)c2ccccc2N(C)c2nc(Nc3ccc(N4CCC(O)CC4)cc3)ncc21 [XMD-12-1]
[1]
  effect on OT-I T cell-mediated target cell lysis (normalized firefly/renilla luciferase ratio relative to DMSO): inhibited T cell-mediated target cell lysis

## CN(C)C/C=C/C(=O)Nc1cc2c(Nc3ccc(F)c(Cl)c3)ncnc2cc1O[C@H]1CCOC1 [afatinib]
[1]; concentrations down to 10 nM
  lysis of OVA-expressing ID8 target cells: lysis of almost all OVA-expressing ID8 target cells
[1]
  effect on OT-I T cell killing of ID8-lucOS target cells, dose-response validation: significantly augmented OT-I T cell killing
[3]
  basal expression of MHC class-I by ID8 tumor cells: significantly increased
  MHC class-I expression induced by physiological levels of IFN-γ, ID8 tumor cells: significantly increased
r/m SCCHN
  reported ORR to monotherapy: 10%
MC38 colon cancer cells
  survival relative to controls: none
[4]
  OT-I T cell-mediated lysis of OVA-expressing KP cells: significantly enhanced
[2]
  IFN-γ secretion (ELISA): did not appear to exert any enhancing effect

## C#Cc1cccc(Nc2ncnc3cc(OCCOC)c(OCCOC)cc23)c1 [erlotinib]
[1]
  effect on OT-I T cell killing of ID8-lucOS target cells, dose-response validation: confirmed to augment T cell-mediated tumor cell lysis
  effect on OT-I T cell-mediated target cell lysis (normalized firefly/renilla luciferase ratio relative to DMSO): significantly augmented T cell killing
[3]
  basal expression of MHC class-I by ID8 tumor cells: significantly increased
  MHC class-I expression induced by physiological levels of IFN-γ, ID8 tumor cells: significantly increased
[4]
  OT-I T cell-mediated lysis of OVA-expressing KP cells: significantly enhanced
[2]
  IFN-γ secretion (ELISA): did not appear to exert any enhancing effect

## COc1cc2ncnc(Nc3ccc(F)c(Cl)c3)c2cc1OCCCN1CCOCC1 [gefitinib]
[1]
  effect on OT-I T cell killing of ID8-lucOS target cells, dose-response validation: significantly augmented OT-I T cell killing
[3]
  basal expression of MHC class-I by ID8 tumor cells: significantly increased
  MHC class-I expression induced by physiological levels of IFN-γ, ID8 tumor cells: significantly increased
[4]
  OT-I T cell-mediated lysis of OVA-expressing KP cells: significantly enhanced
[2]
  IFN-γ secretion (ELISA): did not appear to exert any enhancing effect

## O=C1Nc2ccccc2/C1=C1/Nc2ccccc2C1=O [indirubicin]
[1]
  effect on OT-I T cell killing of ID8-lucOS target cells, dose-response validation: only mildly immunomodulatory

## C=CC(=O)Nc1cc(Nc2nccc(-c3cn(C)c4ccccc34)n2)c(OC)cc1N(C)CCN(C)C [osimertinib]
[1]
  effect on OT-I T cell killing of ID8-lucOS target cells, dose-response validation: modestly enhanced killing

## O=c1sn(-c2cccc3ccccc23)c(=O)n1Cc1ccccc1 [tideglusib]
[1]
  effect on OT-I T cell killing of ID8-lucOS target cells, dose-response validation: only mildly immunomodulatory

## OT-I transgenic T cell receptor (TCRα-V2 / TCRβ-V5) on OT-I CD8+ T cells
[5]
  % killing of OVA-expressing ID8-lucOS target cells (dual-luciferase assay, 48 hr): 50 % killing

## pembrolizumab
r/m SCCHN
  reported ORR to monotherapy: 16%
